# Reference: patent US9868707B2, “Small molecule agonists of neurotensin receptor 1” (SANFORD-BURNHAM MEDICAL RESEARCH INSTITUTE, priority 2012, dated 2018)
# Legend:
# [1] = Parallel Artificial Membrane Permeability Assay (PAMPA); assay type: in vitro ADME
# Description: The PAMPA in a 96-well sandwich plate format was used to determine the capacity of compounds to cross a model of cell membrane by passive diffusion (Avdeef, A., Nielsen, P. E., and Tsinman, O. 2004. PAMPA—a drug absorption in vitro model 11. Matching the in vivo unstirred water layer thickness by individual-well stirring in microtitre plates. Eur J Pharm Sci 22:365-374). The effective permeability of the compound was measured at an initial concentration of 50 μM. The permeability measurements were performed using a cosolvent buffer system (20% ACN/aqueous buffer) solution (pION Inc, Woburn Mass.) prepared according to the manufacturer's instructions. The compound was dissolved in buffer solution and ACN (20%, cosolvent) to the desired concentration (50 μM). The PAMPA sandwich plate consisting of a donor bottom plate and an acceptor filter plate was used. The donor wells contained the compounds in 190 μl system solution, and magnetic stir bars. The filter on the bottom of each acceptor well was coated with GIT-0 phospholipid solution (pION Inc) and filled with 200 μl of Acceptor Sink Buffer, pH 7.4 (pION Inc) containing surfactant. The permeation time was 30 min and moderate stirring (equivalent to 40 μm Aqueous Boundary Layer thickness) was applied using the Gut-Box™ (pION, Inc). After the permeation time, the sandwich was disassembled and the amount of compound present in both the donor and acceptor wells was measured by UV absorbance (250-498 nm) and compared to spectra obtained reference standards. Mass balance was used to determine the amount of material embedded in the membrane filter. The effective permeability, Pe, was calculated using the software PAMPA Evolution Plus, version 3.2 (pION Inc).
# [2] = Plasma protein binding, Rapid Equilibrium Device, human plasma; assay type: in vitro ADME; settings: human plasma (EDTA), diluted 1:1 with PBS, pH 7.4, Human, read-out: Plasma Protein Binding (% Bound) (converted)
# Description: (§1) The extent of compound bound to plasma proteins was measured using the Rapid Equilibrium Device (Pierce Thermo Scientific, Rockford Ill.). The base plate was rinsed with […] followed by 2× washes with ultrapure water and allowed to dry. Human and mouse plasma (BioChemed Services, Winchester Va.) collected in EDTA was allowed to thaw at room temperature and then warmed to 37° C., and diluted 1:1 (v:v) with 1×PBS, pH 7.4, prior to the assay. The compound (1.0 and 10.0 μM final) was added to the chamber containing 300 μl plasma:PBS. Next, 500 μl of dialysis buffer (1×PBS, pH7.4) was added to the buffer chambers of the inserts. The chambers were covered with sealing tape and incubated at 37° C. on an orbital shaker at 300× rpm for 4 hours. After the incubation time, a sample volume of 50 μl from the buffer side, representing the free concentration, and an equivalent sample volume from the plasma side, representing the total concentration, i.e. the free concentration+the concentration of drug bound to protein, were transferred from the dialysis cells to a 96 deep well plate for LCMS analysis. Results reported are the mean of each reaction duplicate, normalized to the internal standard, and expressed as a percent compound bound after the incubation time. The amount of compound in the supernatant was determined by LC/MS/MS and the percent of free and bound compounds were calculated with the following formulas: Percent of free parent compound=(amount of compound in receiver chamber/amount of compound in donor chamber)*100.
# plasma proteins = assay: as above; assay type: in vitro ADME; settings: species not stated
# Description: as §1
# [3] = Plasma protein binding, Rapid Equilibrium Device, mouse plasma; assay type: in vitro ADME; settings: mouse plasma (EDTA), diluted 1:1 with PBS, read-out: Plasma Protein Binding (% Bound) (converted)
# Description: as §1, with “After the incubation time, a sample volume of 50 μl from the buffer side, representing the free concentration, and an equivalent sample volume from the plasma side, representing the total concentration, i.e. the free concentration+the concentration of drug bound to protein, were transferred from the dialysis cells to a 96 deep well plate for LCMS analysis.” left out
# [4] = Plasma stability, human plasma; assay type: in vitro ADME
# Description: Plasma stability was determined using previously published methods (Kerns, E. H., and Di, L. 2008. Drug-like Properties: Concepts, Structure Design and Methods. Oxford UK: Elsevier). Compound (1.0 μM) was incubated at 37° C. in human or mouse plasma (from blood of healthy donors collected on EDTA) diluted to 50% (v/v) with pH 7.4 isotonic phosphate buffer. At time 0 min and 180 min, aliquots were collected, added to acetonitrile to quench the reaction and precipitate plasma proteins. These samples were centrifuged and the supernatant analyzed by the LC/MS/MS method described above for the presence of the parental compound.
# [5] = Metabolic stability in mouse hepatic microsomes; assay type: in vitro ADME
# Description: Hepatic metabolic stability was determined using established protocols (Di, L., Kerns, E. H., Hong, Y., Kleintop, T. A., McConnell, O. J., and Huryn, D. M. 2003. Optimization of a higher throughput microsomal stability screening assay for profiling drug discovery candidates. J Biomol Screen 8:453-462). Briefly, the compound (1.0 and 10.0 μM) was preincubated for 10 min at 37° C. in potassium phosphate buffer (pH 7.4) together with 0.5 mg/mL mouse or human hepatic microsomes (Xenotech, Kansas City). The cofactor mixture comprising NADP, G6P, and G6P-DH (BD Biosciences) was added, and aliquots were taken after 0 and 60 min. Samples were analyzed on an Acquity UPLC, coupled with a sample organizer, and interfaced with a triple quadrupole ABI 4000 LC/MS/MS using the methodology described above. The percentage of the compound remaining after a 60 min incubation period was calculated according the following equation: [(area at time 60 min)/(area at time 0 min)]×100%.
# [6] = test system: GPCR binding assay panel (˜40 receptors); assay: PDSP GPCR binding assay panel
# Text: (§2) However, these activities in in vitro binding assays may not translate into functional modulation of these receptors.
# MOR = target: T1, MOR (Homo sapiens, UniProt P35372); assay: Panlabs/Ricerca lead profiling panel, MOR; assay type: binding; settings: @ 10 μM
# T1 construct: Panlabs/Ricerca (contract panel)
# Text: as §2
# signal = assay: Panlabs/Ricerca lead profiling panel, signal; assay type: binding; settings: @ 10 μM
# Text: as §2
# [7] = test system: adrenergic receptors (α1a, α1B, α1D, α2A); assay: Panlabs panel, adrenergic receptors; assay type: binding; settings: @ 10 μM
# Text: as §2
# [8] = PK in mouse after iv and ip dose; assay type: in vivo
# T1 sequence (P35372 whole entry): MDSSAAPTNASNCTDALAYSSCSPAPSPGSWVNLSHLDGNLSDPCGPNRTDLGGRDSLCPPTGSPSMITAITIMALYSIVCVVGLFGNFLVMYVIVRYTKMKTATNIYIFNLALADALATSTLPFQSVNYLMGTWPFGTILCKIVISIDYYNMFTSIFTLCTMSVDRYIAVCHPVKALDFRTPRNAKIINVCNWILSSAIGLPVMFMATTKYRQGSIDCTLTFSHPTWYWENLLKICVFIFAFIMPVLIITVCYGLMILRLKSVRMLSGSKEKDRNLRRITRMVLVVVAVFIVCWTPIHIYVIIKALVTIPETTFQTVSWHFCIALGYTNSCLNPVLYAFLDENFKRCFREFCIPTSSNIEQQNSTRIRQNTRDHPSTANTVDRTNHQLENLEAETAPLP
smiles,measurement,setting,value
"COc1cc2nc(C3CC3)nc(N3CCN(c4ccccc4OC)CC3)c2cc1OC [Compound 315, 2-cyclopropyl-6,7-dimethoxy-4-(4-(2-methoxyphenyl)piperazin-1-yl)quinazoline]","PAMPA Permeability, Pe","[1]; Donor pH 5.0, Acceptor pH 7.4",1163 ×10⁻⁶ cm/s
same,"PAMPA Permeability, Pe","[1]; Donor pH 6.2, Acceptor pH 7.4",2145 ×10⁻⁶ cm/s
same,"PAMPA Permeability, Pe","[1]; Donor pH 7.4, Acceptor pH 7.4",2093 ×10⁻⁶ cm/s
same,permeability in the PAMPA assay,[1]; with increasing pH of the donor compartment,high permeability
same,"fraction unbound at 4 h, 1 μM",[2]; 1 μM,0.0055
same,"fraction unbound at 4 h, 10 μM",[2]; 10 μM,0.0078
same,plasma protein binding,plasma proteins,highly plasma protein bound
same,"fraction unbound at 4 h, 1 μM","[3]; pH 7.4, 1 μM",0.0033
same,"fraction unbound at 4 h, 10 μM","[3]; pH 7.4, 10 μM",0.0116
same,Plasma Stability (% Remaining at 3 hrs),[4]; Human,100%
same,plasma stability,[4]; species not stated,very high plasma stability
same,Hepatic Microsome Stability (% Remaining at 1 hr),[5],0.16%
same,metabolism in vitro with liver homogenates,[5],metabolized rapidly
same,promiscuity in GPCR binding assay panel,"[6]; at 10 μM, ˜40 receptors tested",moderately promiscuous
same,Ki,"[6]; on 7 receptors, read-out: Kis in GPCR binding assay panel",< 10 µM
same,activity at MOR,MOR,86%
same,activity at signal,signal,69%
same,"activity across adrenergic receptors α1a, α1B, α1D, α2A",[7],63-100%
same,Vdss,[8]; 2 mg/kg iv dose,6.22 L/kg
same,t1/2,[8]; 2 mg/kg iv dose,1.93 h
same,AUC,[8]; 10 mg/kg ip dose,1223 ng·h/mL
same,Cmax,[8]; 10 mg/kg ip dose,763 ng/mL
same,t1/2,[8]; 10 mg/kg ip dose,2.58 h
same,PK properties in mouse,[8]; in vivo,modest PK properties
